From patent US20150258052A1, “METHODS OF USING FEXARAMINE AND AGENTS THAT INCREASE SYMPATHETIC NERVOUS SYSTEM ACTIVITY TO PROMOTE BROWNING OF WHITE ADIPOSE TISSUE” (Salk Institute for Biological Studies, priority 2014, published 2015) come the findings set out here.

The test system of data set [1] is FGF15 signaling and bile acid composition. In words: FGF15 signaling, hepatic bile acid genes, serum bile acid composition and intestinal barrier in Fex-treated HFD mice. The class given is in vivo. The procedure:
FIGS. 7A-7H show a comparative expression chart and bar charts illustrating that fexaramine increased endogenous FGF15 signaling and changes in BA composition. Mice were fed HFD for 14 weeks and then administered daily oral injections of vehicle or fexaramine (100 mg/kg) for 5 weeks with HFD. In the bar graphs, open bars represent vehicle treatment and solid bars represent fexaramine treatment, and data represent the mean±STD. Statistical analysis was performed with the Student's t test (*p<0.05, **p<0.01).
FIG. 8 is a bar graph showing hepatic Cyp7a1 levels determined by ELISA. Data represent the mean±SD. Statistical analysis was performed with the Student's t test. *p<0.05, **p<0.01.
Mice fed a HFD for 14 weeks were maintained on a HFD and treated with vehicle or fexaramine (100 mg/kg/day per os for 5 week). Serum bile acid composition was determined by mass spectrometry. N.D. not determined.
FXR activation has been reported to enhance mucosal defense gene expression and intestinal barrier function (Inagaki et al., Proc Natl Acad Sci USA 103:3920-3925, 2006; Gadaleta., et al. Gut 60:463-472, 2011).

The next data set has as its system DIO mice. In words: Hyperinsulinemic-euglycemic clamp and liver analysis in Fex-treated DIO mice. The format is in vivo. The method, then: Mice were fed HFD for 14 weeks and then subjected to daily PO injection of vehicle or fexaramine (100 mg/kg) for 5 weeks with HFD. In the bar graphs, open bars are vehicle, solid bars are fexaramine, and data represent the mean±STD. Statistical analysis was performed with the Student's t test (*p<0.05, **p<0.01).
FIGS. 15I-15K are a line graph and two bar graphs showing the effect of fexaramine treatment on body weight, insulin-stimulated GDR, and fasting insulin levels. Mice were fed HFD for 14 weeks, and then administered daily oral injections of vehicle or fexaramine (100 mg/kg) for 3 weeks with HFD. The mice treated with fexaramine were initially heavier (by 2-3 grams). Three weeks after treatment, a clamp study was performed on the mice. Data represent the mean±STD. Statistical analysis was performed with the Student's t test (*p<0.05, **p<0.01).
Liver insulin resistance has been linked to obesity-induced hepatic steatosis (Cohen et al., Science 332:1519-1523, 2011). […] Furthermore, decreased serum alanine aminotransferase (ALT) levels were measured in Fex-treated mice, indicating reduced HFD-induced liver damage (FIG. 15H). Thus, in DIO mice Fex promotes hepatic insulin sensitization, reduced steatosis, improved metabolic markers, decreased ALT and enhanced BAT activity.

The subject of data set [2] is FXR target gene expression. In words: FXR target gene expression (qPCR) in intestine, liver and kidney after acute PO or IP fexaramine. The format is in vivo, mice. The method, then: FIGS. 1A-1C are a comparative expression chart and two bar charts, respectively, illustrating increased levels of FXR target gene expression in the intestine relative to expression in the liver and kidney. 8 week-old mice were treated with vehicle or fexaramine (100 mg/kg) via oral (PO) or intraperitoneal (IP) injection for three days (FIGS. 1A-1B) or five days (FIG. 1C).
FXR target gene expression was analyzed by qPCR. Gene expression was normalized against a vehicle-treated group.
Data represent the mean±SD. Statistical analysis was performed with the Student's t test. *p<0.05, **p<0.01.
FIG. 1F is a bar chart illustrating that orally delivered Fexaramine is intestinally-restricted. Mice received vehicle or Fexaramine (100 mg/kg) via per os (PO) or intraperitoneal (IP) injection for 5 days. Expression of the FXR target gene SHP after PO or IP injection in selected tissues is shown.
Upon exploration of the in vivo effects of fexaramine (Fex) administration, it was discovered that due to ineffectual absorption, oral (PO) and intraperitoneal (IP) drug delivery produced very different effects (FIGS. 1D and 1E).

The mark [3] stands for this setting: DIO mice, chronic Fex treatment.
Where [4] appears, read: PO, 100 mg/kg, listed as fexaramine.

`COC(=O)/C=C/c1cccc(N(Cc2ccc(-c3ccc(N(C)C)cc3)cc2)C(=O)C2CCCCC2)c1` [Fex, fexaramine]: in data set [1] (100 mg/kg PO 5 weeks), the “FGF15 expression in intestine (RNA-Seq)” value was “dramatically up-regulated”, the “bile acid pool size (total serum BA levels)” value is on record as “reducing the bile acid pool size” and the “ratio of unconjugated to conjugated cholic acid” value is given as “remarkably increased”. For the same molecule, the “circulating FGF15” value in data set [1] (100 mg/kg PO 5 weeks, serum) is on record as “increase in circulating FGF15”. Further, in data set [1] (chronic Fex treatment), the “expression of liver FXR target genes SHP and BSEP” value is given as “not altered”; the “hepatic CYP7A1 expression (mRNA and protein)” value was “significantly repressed”; the “hepatic expression of CYP8B1 and CYP27A1” value was “not affected”. For the same molecule, the “expression of mucosal defense genes Occludin and Muc2” value in data set [1] (chronic Fex-treatment) is reported as “increased expression”. In the data set with DIO mice (DIO mice, 100 mg/kg PO 5 weeks), the “lipid droplets in liver (histology, hepatic steatosis)” value is listed as “reduction in lipid droplets” and the “serum alanine aminotransferase (ALT) levels” value is recorded as “decreased”. Moreover, in the data set on DIO mice (setting [3]), the “hepatic expression of gluconeogenic and lipogenic genes” value is “reduced hepatic expression”; the hepatic triglycerides result was “marked decrease”. Further, the “insulin-mediated suppression of HGP” value in the data set with DIO mice (hyperinsulinemic-euglycemic clamp, versus control DIO mice) is “marked increase”. The “basal HGP, GDR, IS-GDR, FFA suppression and fasting insulin levels” value with DIO mice (weight-matched cohorts, hyperinsulinemic-euglycemic clamp) is on record as “No differences”. In addition, in data set [2] (IP, 100 mg/kg for five days), the “induction of FXR target gene SHP in intestine” value was “robust induction”. In addition, the “FXR target gene expression in liver, kidney and intestines” value in data set [2] (IP, 100 mg/kg, five days) is “increases FXR target gene expression in the liver and kidney, in addition to the intestines”. Also, the “induction of SHP in liver and kidney” value in data set [2] (PO versus IP, 100 mg/kg for five days) was “only seen in liver and kidney after IP treatment”. For the same molecule, in data set [2] (PO, 100 mg/kg), the “FXR target gene expression (IBABP, OSTα, FGF15) in intestine” value is reported as “induced multiple FXR target genes in the intestine” and the “FXR target gene expression in liver or kidney” value is reported as “failed to affect the expression of these genes in liver or kidney”. Further, the “induction of FXR target gene SHP in intestine” value in data set [2] (PO, 100 mg/kg for five days) is “robust induction”. In addition, in data set [2] (setting [4]), the “FXR target gene expression (IBABP, OSTα, FGF15) in intestine” value was “substantially enhances FXR target gene expression in the intestine” and the “FXR target gene expression in liver or kidney” value was “not in the liver or kidney”.
